Key:
Assay type in all cases: cell-based
MDA−MB−231 3D networks = test: 3D bioprinted culture cytotoxicity (WST-1); conditions: 72 h, mean ± SEM
From the text: To evaluate the cytotoxic effect of platinum(II) and (IV) complexes in 3D cell culture, MDA−MB−231 or HT29 cells were used to bioprint networks or spheroids with the non-contact drop-on-demand 3D RASTRUM bioprinter (Inventia Life Science, Alexandria, NSW, Australia). The 3D cultures use two constituents: bioink and activator. Cell pellets (2 × 10^6 cells) were resuspended in an activator reagent which forms an instant gel after its addition to the bioink by the bioprinter. The 3D large plug cell model with polyethylene glycol bioinks formulated to mimic the properties of in vivo tissue were chosen as follows. Matrix Px02.31 (activator F177 and bioink F242 with RGD: Fibronectin) was used for MDA−MB−231 3D embedded networks, Px02.00 (activator F177 and bioink F119 without RGD additives, Table S1) was used for MDA−MB−231 spheroids and matrix #Px02.09 (activator F177 and bioink F236 with adhesion peptides including, RGD: Fibronectin, and GFOGER: collagen type I to recapitulate rich in vivo tissue extracellular environments) was used for HT29 spheroids (Inventia Life Science) (Table S1). Each cell line was printed at 10,000 cells/well and loaded with the bioink fluids into the selected printer cartridge. After the automated priming of all fluids into the printer nozzles, each cell line was individually printed on tissue culture plates (Nunc^TM MicroWell^TM 96-Well, Nunclon Delta-Treated, Flat-Bottom Microplate, ThermoFisher #167008), with RASTRUM creating the 3D Large Plug across the 96-well plate. Following completion of the print run, 200 μL DMEM culture medium was added to each well using multichannel pipettes. The plate was then incubated for 7 days (humidified incubator with 5% CO2 at 37 °C) for compact and homogenous spheroid formation before the cytotoxicity assay. When the spheroids developed, post-7-day incubation, media was removed and replaced with 100 µL DMEM. […] Cytotoxicity was then assessed using the WST-1 assay as previously described in Section 2.3.

HT29 cells = test: Cellular uptake of Pt by ICP-MS; conditions: for Intracellular Concentration: HT29, 3 µM; for Intracellular/extracellular ratio: HT29, extracellular 3 µM
Procedure: (§1) A final concentration of 10^6 cells/well of MDA−MB−231 and HT29 cells were seeded in 6-well plates and incubated overnight to adhere. The cells were then treated with a final concentration of 3 µM of either Pt^II or Pt^IV complexes. After 0, 0.5, 1, 3, 6, 12, 24 or 30 h, the medium was removed, and the cells were washed three times with cold PBS and allowed to dry. Then, 400 µL of 69% HNO3 (Baseline grade nitric acid with PPB level reported impurities, Seastar Chemicals, Sidney, BC, Canada) was added to each well for 90 min to ensure complete digestion. […] Iridium 193 (^193Ir) was mixed online and introduced into the ICP-MS to check uptake efficiency and matrix interference. All ICP-MS parameters are described in Table S2 and elaborated in Method S3. The results represent an average of three different experiments run in triplicate (±SEM) and expressed as nmol/10^6 cells or µM/cell. Quantification of the cellular uptake of Pt was based on external standards (Certified Standard from Sigma-Aldrich, VIC, Australia) containing Internal standard Ir.
(§2) Method S3. Cellular Uptake of Platinum(II) and (IV) complexes
(§3) A final concentration of 10^6 cells/well of MDA−MB−231 and HT29 cells were seeded in 6-well plates and incubated overnight to adhere. The cells were then treated with a final concentration of 3 µM of either PtII or PtIV complexes. After 0, 0.5, 1, 3, 6, 12, 24 or 30 h, the medium was removed, and the cells were washed three times with cold PBS and allowed to dry. Then, 400 µL of 69% HNO3 (Baseline grade nitric acid with Instrument Quality Grade Nitric acid with ppb level reported impurities, Seastar Chemicals, Sidney, Canada) was added to each well for 90 mins to ensure complete digestion. The digests were then moved to trace -metal free 15 mL centrifuge tubes […]
(§4) concentration of 3.5-4%. Iridium 193 (193Ir), selected as internal standard, has similar first ionisation potential and mass to Platinum 195 (195Pt). A concentration of 50 ppb 193Ir in 2% HNO3 solution was chosen for the Perkin Elmer NexION® Inductively Coupled Plasma Mass Spectrometer (ICP-MS) as it produced a steady state signal intensity of 600-800K counts per second. Mixing and injection of sample and internal standard solution was carried out using an ESI 7 port Valve system (Elemental Scientific, USA). A high-quality Solvent Flex 2 stop pump with 0.38 mm ID tubing was used in conjunction with the ICP-MS’s Peristaltic pump set at 20 […]
(§5) standard both, at 0.25 mL/min) being 0.5 mL/min. The ICP-MS was tuned to high sensitivity settings to facilitate detection of low Pt concentrations in samples. This was done by adjusting the nebuliser gas flow between […] to achieve maximum Indium 115 intensity whilst maintaining an acceptable average oxide and doubly charged ratio of 1.64-2.24% and 1.17-1.69% respectively. The analysis method was set to peak hopping mode with a dwell time of […] and 45 sweeps through the mass spectrum per sample read. […]
(§6) peak integration time of 4500 milliseconds and enabled the collection of numerous data points for peak integration thereby increasing accuracy. The ICP-MS was tuned daily, and its performance optimised to a set of suppliers recommended settings. Analysis was only carried out when optimal oxide and doubly charged ratios with high ionic sensitivity was achieved. All ICP-MS parameters are described in Table S2. The results represent an average of three different experiments run in triplicates (± SEM) and expressed as nmol/106 cells or µM/cell. Quantification of the cellular uptake of Pt was based on external standards (Certified Standard from Sigma-Aldrich NSW, Australia) containing Internal standard Ir. […]

MDA−MB−231 cells = test: Cellular uptake of Pt by ICP-MS; conditions: for Intracellular Concentration: MDA−MB−231, 3 µM; for Intracellular/extracellular ratio: MDA−MB−231, extracellular 3 µM
Procedure: as §1, §2, §3, §4, §5, §6

Row | Compound | IC50 (MDA−MB−231 3D networks) [µM] | Intracellular Concentration (HT29 cells; 0 h) [nmol/10^6 cells] | Intracellular Concentration (HT29 cells; 0.5 h) [nmol/10^6 cells] | Intracellular Concentration (HT29 cells; 1 h) [nmol/10^6 cells] | Intracellular Concentration (HT29 cells; 3 h) [nmol/10^6 cells] | Intracellular Concentration (HT29 cells; 6 h) [nmol/10^6 cells] | Intracellular Concentration (HT29 cells; 12 h) [nmol/10^6 cells] | Intracellular Concentration (HT29 cells; 24 h) [nmol/10^6 cells] | Intracellular Concentration (HT29 cells; 30 h) [nmol/10^6 cells] | Intracellular Concentration (MDA−MB−231 cells; 0 h) [nmol/10^6 cells] | Intracellular Concentration (MDA−MB−231 cells; 0.5 h) [nmol/10^6 cells] | Intracellular Concentration (MDA−MB−231 cells; 1 h) [nmol/10^6 cells] | Intracellular Concentration (MDA−MB−231 cells; 3 h) [nmol/10^6 cells] | Intracellular Concentration (MDA−MB−231 cells; 6 h) [nmol/10^6 cells] | Intracellular Concentration (MDA−MB−231 cells; 12 h) [nmol/10^6 cells] | Intracellular Concentration (MDA−MB−231 cells; 24 h) [nmol/10^6 cells] | Intracellular Concentration (MDA−MB−231 cells; 30 h) [nmol/10^6 cells] | further results
1 | N.N.[Cl][Pt][Cl] [Cisplatin, cisplatin] | 16 ± 1.49 | 0.36 | 0.94 | 0.14 | 0.28 | 0.10 | 0.57 | 1.02 | 0.71 | 0.56 | 0.15 | 0.14 | 0.12 | 0.18 | 0.19 | 0.24 | 1.29 | 
2 | Cc1cc2cccnc2c2ncccc12.N[C@H]1CCCC[C@@H]1N.O=[N+]([O-])[O-].O=[N+]([O-])[O-].[Pt+2] [Pt^II5MESS, [Pt(5-methyl-1,10-phenanthroline)(1S,2S-diaminocyclohexane)](NO3)2] | 2.04 ± 1.31 | 0.28 | 0.79 | 1.26 | 2.75 | 4.65 | 19.18 | 21.18 | 21.24 | 0.37 | 0.44 | 0.39 | 0.98 | 1.25 | 4.82 | 5.64 | 7.63 | Intracellular/extracellular ratio (HT29 cells; 0 h): 44.37; Intracellular/extracellular ratio (HT29 cells; 0.5 h): 125.00; Intracellular/extracellular ratio (HT29 cells; 1 h): 197.63; Intracellular/extracellular ratio (HT29 cells; 3 h): 431.44; Intracellular/extracellular ratio (HT29 cells; 6 h): 730.89; Intracellular/extracellular ratio (HT29 cells; 12 h): 3013.21; Intracellular/extracellular ratio (HT29 cells; 24 h): 3327.94; Intracellular/extracellular ratio (HT29 cells; 30 h): 3337.20; Intracellular/extracellular ratio (MDA−MB−231 cells; 0 h): 57.65; Intracellular/extracellular ratio (MDA−MB−231 cells; 0.5 h): 69.63; Intracellular/extracellular ratio (MDA−MB−231 cells; 1 h): 61.30; Intracellular/extracellular ratio (MDA−MB−231 cells; 3 h): 154.59; Intracellular/extracellular ratio (MDA−MB−231 cells; 6 h): 196.09; Intracellular/extracellular ratio (MDA−MB−231 cells; 12 h): 757.65; Intracellular/extracellular ratio (MDA−MB−231 cells; 24 h): 885.63; Intracellular/extracellular ratio (MDA−MB−231 cells; 30 h): 1199.77

Source: article PMC11274883, “Anticancer Effect of Pt^[sequence], Pt^II5MESS, Pt^II56MESS and Their Platinum(IV)-Dihydroxy Derivatives against Triple-Negative Breast Cancer and Cisplatin-Resistant Colorectal Cancer” (Cancers, 2024)
